In ChEMBL document CHEMBL4007445, “Design, synthesis, and biological evaluation of imidazo[1,2-b]pyridazine derivatives as mTOR inhibitors” (Eur J Med Chem, 2017):
The source made the active and inactive calls. The rule behind the calls is not given here.

Experiments:
[1] = molecular target: PI3-kinase p110-alpha/p85-alpha (Homo sapiens) (UniProt P27986+P42336); experiment: Inhibition of human PI3K p110alpha/p85alpha at 10 uM using phosphatidylinositol 4,5-bisphosphate as substrate after 30 mins by HTRF assay relative to control; assay type: protein-complex assay
[2] = molecular target: PI3K p110 beta/p85 alpha (Homo sapiens) (UniProt P27986+P42338); experiment: Inhibition of human PI3K p110beta/p85alpha at 10 uM using phosphatidylinositol 4,5-bisphosphate as substrate after 30 mins by HTRF assay relative to control; assay type: protein-complex assay
Chain of PI3K p110 beta/p85 alpha (Homo sapiens) (P27986 2-724 limits assumed): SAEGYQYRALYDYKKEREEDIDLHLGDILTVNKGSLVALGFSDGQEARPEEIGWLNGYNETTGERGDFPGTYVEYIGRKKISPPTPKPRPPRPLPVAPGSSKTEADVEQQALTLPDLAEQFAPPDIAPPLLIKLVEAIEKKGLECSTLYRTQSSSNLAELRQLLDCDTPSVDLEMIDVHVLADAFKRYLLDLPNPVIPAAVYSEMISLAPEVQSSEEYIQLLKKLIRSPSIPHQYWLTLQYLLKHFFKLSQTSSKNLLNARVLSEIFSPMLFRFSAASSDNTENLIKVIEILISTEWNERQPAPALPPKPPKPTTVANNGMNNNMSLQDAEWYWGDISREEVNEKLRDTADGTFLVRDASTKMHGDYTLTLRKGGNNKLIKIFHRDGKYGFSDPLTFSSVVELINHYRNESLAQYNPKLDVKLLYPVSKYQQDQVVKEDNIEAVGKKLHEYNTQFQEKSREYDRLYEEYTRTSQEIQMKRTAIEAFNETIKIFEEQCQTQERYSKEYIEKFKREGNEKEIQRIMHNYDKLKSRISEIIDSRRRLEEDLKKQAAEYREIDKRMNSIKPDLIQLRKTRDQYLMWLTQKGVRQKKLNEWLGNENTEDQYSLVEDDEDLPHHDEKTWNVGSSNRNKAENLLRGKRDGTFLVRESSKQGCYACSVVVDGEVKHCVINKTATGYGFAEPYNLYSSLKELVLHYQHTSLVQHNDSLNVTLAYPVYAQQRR
Chain of PI3K p110 beta/p85 alpha (Homo sapiens) (P42338 whole entry partner, canonical isoform): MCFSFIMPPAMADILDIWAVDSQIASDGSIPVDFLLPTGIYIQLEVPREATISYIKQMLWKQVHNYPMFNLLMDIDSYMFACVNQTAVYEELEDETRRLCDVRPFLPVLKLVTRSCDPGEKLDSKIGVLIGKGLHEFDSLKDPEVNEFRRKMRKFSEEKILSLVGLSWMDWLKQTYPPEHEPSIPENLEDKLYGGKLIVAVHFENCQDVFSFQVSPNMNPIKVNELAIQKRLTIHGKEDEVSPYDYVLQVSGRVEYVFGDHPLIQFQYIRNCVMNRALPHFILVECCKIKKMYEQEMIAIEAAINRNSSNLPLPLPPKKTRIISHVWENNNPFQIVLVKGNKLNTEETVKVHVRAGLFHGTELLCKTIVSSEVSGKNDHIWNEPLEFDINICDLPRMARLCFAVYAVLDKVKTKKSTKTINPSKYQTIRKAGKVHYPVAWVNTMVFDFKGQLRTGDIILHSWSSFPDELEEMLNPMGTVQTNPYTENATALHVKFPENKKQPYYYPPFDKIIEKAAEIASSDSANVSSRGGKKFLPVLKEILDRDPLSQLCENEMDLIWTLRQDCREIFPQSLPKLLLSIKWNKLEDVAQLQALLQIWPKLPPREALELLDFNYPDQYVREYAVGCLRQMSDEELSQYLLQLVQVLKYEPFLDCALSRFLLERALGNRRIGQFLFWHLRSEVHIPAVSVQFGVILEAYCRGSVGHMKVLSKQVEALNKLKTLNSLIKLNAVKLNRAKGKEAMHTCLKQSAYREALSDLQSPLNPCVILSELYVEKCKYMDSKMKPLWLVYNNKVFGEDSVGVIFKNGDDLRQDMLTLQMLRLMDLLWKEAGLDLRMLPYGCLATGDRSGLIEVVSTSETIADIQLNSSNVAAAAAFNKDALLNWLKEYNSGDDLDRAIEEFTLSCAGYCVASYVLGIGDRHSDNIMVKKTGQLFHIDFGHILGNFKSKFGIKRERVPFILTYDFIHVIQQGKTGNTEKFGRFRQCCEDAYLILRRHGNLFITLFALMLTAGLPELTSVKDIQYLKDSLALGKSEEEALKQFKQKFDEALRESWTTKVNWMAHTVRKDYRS

[3] = molecular target: Phosphatidylinositol 4,5-bisphosphate 3-kinase catalytic subunit gamma isoform (Homo sapiens) (UniProt P48736); experiment: Inhibition of human PI3K p120gamma at 10 uM using phosphatidylinositol 4,5-bisphosphate as substrate after 30 mins by HTRF assay relative to control
Chain of Phosphatidylinositol 4,5-bisphosphate 3-kinase catalytic subunit gamma isoform (Homo sapiens) (P48736 whole entry, looked up, canonical isoform): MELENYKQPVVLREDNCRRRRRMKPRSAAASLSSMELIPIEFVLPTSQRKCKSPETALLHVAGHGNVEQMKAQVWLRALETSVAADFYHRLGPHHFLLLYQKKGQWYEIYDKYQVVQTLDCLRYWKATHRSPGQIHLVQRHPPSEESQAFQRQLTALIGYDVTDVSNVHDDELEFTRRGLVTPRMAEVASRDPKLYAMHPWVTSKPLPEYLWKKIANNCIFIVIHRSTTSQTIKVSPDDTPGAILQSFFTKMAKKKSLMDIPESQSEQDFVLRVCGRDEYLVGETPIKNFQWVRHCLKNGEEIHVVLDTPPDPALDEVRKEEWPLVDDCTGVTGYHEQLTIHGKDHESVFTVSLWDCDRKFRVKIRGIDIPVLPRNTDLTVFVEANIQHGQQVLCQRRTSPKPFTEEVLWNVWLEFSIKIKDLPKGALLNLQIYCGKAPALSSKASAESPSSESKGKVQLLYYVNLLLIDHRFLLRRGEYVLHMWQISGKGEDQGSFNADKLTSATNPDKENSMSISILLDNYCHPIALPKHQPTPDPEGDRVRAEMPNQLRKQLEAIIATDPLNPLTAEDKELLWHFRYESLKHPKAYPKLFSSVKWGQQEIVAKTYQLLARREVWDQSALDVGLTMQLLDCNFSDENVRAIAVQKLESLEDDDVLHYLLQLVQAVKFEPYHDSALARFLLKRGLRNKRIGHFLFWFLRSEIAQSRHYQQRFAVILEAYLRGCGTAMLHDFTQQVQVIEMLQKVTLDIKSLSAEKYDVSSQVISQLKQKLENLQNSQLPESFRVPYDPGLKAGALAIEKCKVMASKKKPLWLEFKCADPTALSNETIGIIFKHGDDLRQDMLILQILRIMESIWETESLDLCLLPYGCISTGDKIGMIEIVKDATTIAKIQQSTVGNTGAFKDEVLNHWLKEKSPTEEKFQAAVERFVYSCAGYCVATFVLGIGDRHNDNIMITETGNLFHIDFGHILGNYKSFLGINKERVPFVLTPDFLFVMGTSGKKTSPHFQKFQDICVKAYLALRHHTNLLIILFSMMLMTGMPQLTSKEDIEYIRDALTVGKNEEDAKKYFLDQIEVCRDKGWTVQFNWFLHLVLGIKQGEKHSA

[4] = molecular target: PI3-kinase p110-delta/p85-alpha (Homo sapiens) (UniProt P27986+O00329); experiment: Inhibition of human PI3K p110delta/p85alpha at 10 uM using phosphatidylinositol 4,5-bisphosphate as substrate after 30 mins by HTRF assay relative to control; assay type: protein-complex assay
A549 [5] = experiment: Induction of apoptosis in human A549 cells assessed as live cells at 10 uM after 48 hrs by Annexin V-FITC/propidium iodide staining based flow cytometry (reference value: 90%); assay type: functional
A549 [6] = experiment: Cell cycle arrest in human A549 cells assessed as accumulation at G2 phase at 10 uM after 48 hrs by propidium iodide staining based flow cytometry (reference value: 14.49%); assay type: functional
[7] = molecular target: PI3-kinase p110-alpha/p85-alpha (Homo sapiens, UniProt P42336); experiment: Inhibition of human PI3K p110alpha/p85alpha using phosphatidylinositol 4,5-bisphosphate as substrate after 30 mins by HTRF assay; assay type: protein-complex assay
Chain of PI3-kinase p110-alpha/p85-alpha (P27986 whole entry): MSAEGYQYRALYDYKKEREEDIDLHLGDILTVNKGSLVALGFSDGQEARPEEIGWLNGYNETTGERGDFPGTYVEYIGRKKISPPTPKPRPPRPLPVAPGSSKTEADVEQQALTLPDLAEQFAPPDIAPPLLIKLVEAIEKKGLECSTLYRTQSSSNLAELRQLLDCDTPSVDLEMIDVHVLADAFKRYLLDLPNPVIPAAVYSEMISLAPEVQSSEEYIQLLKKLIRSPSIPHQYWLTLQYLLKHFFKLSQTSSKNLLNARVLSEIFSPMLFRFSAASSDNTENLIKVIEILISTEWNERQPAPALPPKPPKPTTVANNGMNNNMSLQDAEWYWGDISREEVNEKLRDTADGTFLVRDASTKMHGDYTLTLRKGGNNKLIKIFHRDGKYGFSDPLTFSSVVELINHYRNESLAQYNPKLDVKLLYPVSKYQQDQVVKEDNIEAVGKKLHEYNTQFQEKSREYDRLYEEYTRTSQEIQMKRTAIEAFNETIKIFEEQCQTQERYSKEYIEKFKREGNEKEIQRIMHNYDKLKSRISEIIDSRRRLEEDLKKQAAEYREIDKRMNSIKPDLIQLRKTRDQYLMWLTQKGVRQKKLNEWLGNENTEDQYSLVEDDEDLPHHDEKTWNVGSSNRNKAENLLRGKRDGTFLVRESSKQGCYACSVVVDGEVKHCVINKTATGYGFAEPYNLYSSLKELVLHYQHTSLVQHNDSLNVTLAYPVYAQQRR
Chain of PI3-kinase p110-alpha/p85-alpha (P42336 whole entry): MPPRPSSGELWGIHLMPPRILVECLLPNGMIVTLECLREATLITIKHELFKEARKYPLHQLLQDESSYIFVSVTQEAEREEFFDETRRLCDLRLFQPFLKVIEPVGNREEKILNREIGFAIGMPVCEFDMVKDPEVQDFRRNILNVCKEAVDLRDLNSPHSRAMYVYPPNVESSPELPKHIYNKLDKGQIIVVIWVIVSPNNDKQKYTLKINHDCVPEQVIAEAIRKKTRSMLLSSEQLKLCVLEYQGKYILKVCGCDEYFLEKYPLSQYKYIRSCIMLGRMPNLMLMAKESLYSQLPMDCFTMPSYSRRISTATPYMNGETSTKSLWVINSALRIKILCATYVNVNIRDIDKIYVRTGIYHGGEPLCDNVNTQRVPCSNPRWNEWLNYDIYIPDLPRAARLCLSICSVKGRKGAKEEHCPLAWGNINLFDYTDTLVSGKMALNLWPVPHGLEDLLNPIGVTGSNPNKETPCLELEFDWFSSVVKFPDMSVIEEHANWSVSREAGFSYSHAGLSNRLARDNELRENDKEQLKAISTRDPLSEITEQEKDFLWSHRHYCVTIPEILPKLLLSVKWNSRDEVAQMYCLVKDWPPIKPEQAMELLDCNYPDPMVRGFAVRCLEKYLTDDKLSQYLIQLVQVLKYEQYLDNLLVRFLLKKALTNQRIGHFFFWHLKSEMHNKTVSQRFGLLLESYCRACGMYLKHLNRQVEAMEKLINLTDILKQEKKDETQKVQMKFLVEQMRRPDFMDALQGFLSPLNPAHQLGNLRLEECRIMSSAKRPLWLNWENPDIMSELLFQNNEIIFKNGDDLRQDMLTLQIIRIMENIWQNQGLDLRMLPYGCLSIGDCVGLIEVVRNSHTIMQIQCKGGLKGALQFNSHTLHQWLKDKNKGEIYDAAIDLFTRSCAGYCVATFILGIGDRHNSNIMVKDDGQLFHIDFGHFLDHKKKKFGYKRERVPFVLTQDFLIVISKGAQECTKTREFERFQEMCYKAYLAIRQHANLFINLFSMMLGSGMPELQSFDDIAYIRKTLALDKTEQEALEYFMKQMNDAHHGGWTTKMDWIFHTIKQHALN

NCI-H460 = experiment: Antiproliferative activity against human NCI-H460 cells after 72 hrs by SRB assay; assay type: functional, cell-based; conditions: NCI-H460, 72 h
A549 [8] = experiment: Inhibition of mTORC1 in human A549 cells assessed as reduction in S6 phosphorylation at […] residues at 5 uM up to 2 hrs by Western blot method; assay type: cell-based
[9] = Antiproliferative activity against human U87 cells after 72 hrs by SRB assay; assay type: functional, cell-based, U-87MG ATCC; conditions: U-87 MG
[10] = molecular target: T1, Serine/threonine-protein kinase mTOR (Homo sapiens, UniProt P42345); experiment: Inhibition of mTOR in human A549 cells assessed as reduction in p70S6K phosphorylation at T389 residue after 2 hrs by HTRF method; assay type: cell-based
Mus musculus [11] = experiment: Toxicity in Balb/c nude mouse xenografted with human A549 cells assessed as mortality at 5 to 30 mg/kg, iv administered 7 times on day 14, 16, 18, 21, 23, 25, 28 post tumor implantation; assay type: organism-based; conditions: in vivo
A549 [12] = experiment: Induction of apoptosis in human A549 cells assessed as late apoptotic cells at 10 uM after 48 hrs by Annexin V-FITC/propidium iodide staining based flow cytometry (reference value: 6.3%); assay type: functional
A549 [13] = experiment: Induction of apoptosis in human A549 cells assessed as early apoptotic cells at 10 uM after 48 hrs by Annexin V-FITC/propidium iodide staining based flow cytometry (reference value: 3.6%); assay type: functional
A549 [14] = experiment: Cell cycle arrest in human A549 cells assessed as accumulation at S phase at 10 uM after 48 hrs by propidium iodide staining based flow cytometry (reference value: 45.31%); assay type: functional
Mus musculus [15] = experiment: Toxicity in Balb/c nude mouse xenografted with human A549 cells assessed as changes in body weight at 5 to 30 mg/kg, iv administered 7 times on day 14, 16, 18, 21, 23, 25, 28 post tumor implantation; assay type: organism-based; conditions: in vivo
MCF7 = experiment: Antiproliferative activity against human MCF7 cells after 72 hrs by SRB assay; assay type: functional, cell-based; conditions: MCF7, 72 h
A549 [16] = experiment: Induction of apoptosis in human A549 cells assessed as necrotic cells at 10 uM after 48 hrs by Annexin V-FITC/propidium iodide staining based flow cytometry (reference value: 0.1%); assay type: functional
A549 [17] = experiment: Cell cycle arrest in human A549 cells assessed as accumulation at G1 phase at 10 uM after 48 hrs by propidium iodide staining based flow cytometry (reference value: 40.21%); assay type: functional
A549 [18] = experiment: Inhibition of mTORC2 in human A549 cells assessed as reduction in Akt phosphorylation at Ser-473 residue at 5 uM up to 2 hrs by Western blot method; assay type: cell-based
HEK293 = experiment: Antiproliferative activity against HEK293 cells after 72 hrs by SRB assay; assay type: cell-based; conditions: Homo sapiens, HEK293, 72 h
A549 [19] = experiment: Antiproliferative activity against human A549 cells after 72 hrs by SRB assay; assay type: functional, cell-based; conditions: A549, 72 h
[20] = molecular target: T1, Serine/threonine-protein kinase mTOR; experiment: Inhibition of human N-terminal FLAG-tagged mTOR (1362-end residues) in presence of [gamma33P]ATP after 40 mins
A549 [21] = experiment: Antitumor activity against human A549 cells xenografted in Balb/c nude mouse assessed sa tumor growth inhibition at 30 mg/kg, iv administered 7 times on day 14, 16, 18, 21, 23, 25, 28 post tumor implantation measured after 1 week relative to control; assay type: functional; conditions: read-out: TGI
A-375 = experiment: Antiproliferative activity against human A375 cells after 72 hrs by SRB assay; assay type: functional, cell-based; conditions: A-375, 72 h

inhibition [1] [%]	inhibition [2] [%]	inhibition [3] [%]	inhibition [4] [%]	IC50 [7] [nM]	IC50 (NCI-H460) [nM]	IC50 (MCF7) [nM]	IC50 (A549 [19]) [nM]	IC50 (A-375) [nM]	SMILES	Activity (A549 [5]) [%]	Activity (A549 [6]) [%]	inhibition (A549 [8])	IC50 [9] [nM]	inhibition [10]	Activity (A549 [12]) [%]	Activity (A549 [13]) [%]	Activity (A549 [14]) [%]	Activity (A549 [16]) [%]	Activity (A549 [17]) [%]	IC50 (HEK293) [nM]	also measured
101	99	98	96	–	–	–	–	–	Oc1cccc(-c2nc(N3CCOCC3)c3oc4ncccc4c3n2)c1	–	–	–	–	–	–	–	–	–	–	–	–
70	12	29	59	5580	10	140	50	120	COc1ccc(-c2ccc3c(N4CCOC[C@@H]4C)nc(N4CCOC[C@@H]4C)nc3n2)cc1CO [AZD-8055]	–	–	–	190	–	–	–	–	–	–	1400	–
64	33	39	29	3110	670	13100	20	5800	C[C@H]1COCCN1c1cc(-c2ccc(NC(=O)Nc3ccncc3)cc2)nn2ccnc12	89.9	13.86	Active	7400	Dose-dependent effect	6.3	3.7	35.19	0	50.95	5200	inhibition (A549 [18]): Active; IC50 [20]: 62 nM

SMILES	inhibition [1] [%]	inhibition [2] [%]	inhibition [3] [%]	inhibition [4] [%]	IC50 [7] [nM]	IC50 (NCI-H460) [nM]	IC50 (MCF7) [nM]	IC50 (A549 [19]) [nM]	IC50 (A-375) [nM]	Activity (A549 [5]) [%]	Activity (A549 [6]) [%]	inhibition (A549 [8])	IC50 [9] [nM]	inhibition [10]	Activity (A549 [12]) [%]	Activity (A549 [13]) [%]	Activity (A549 [14]) [%]	Activity (A549 [16]) [%]	Activity (A549 [17]) [%]	IC50 (HEK293) [nM]	also measured
C[C@H]1COCCN1c1cc(-c2ccc(NC(=O)Nc3cccnc3)cc2)nn2ccnc12	59	24	40	19	4420	470	40000	50	11300	87.8	7.61	Active	13500	Dose-dependent effect	8.8	3.5	33.07	0	55.32	9000	Activity (Mus musculus [11]): Non-Toxic; Activity (Mus musculus [15]): Non-Toxic; inhibition (A549 [18]): Active; IC50 [20]: 67 nM; inhibition in vivo at 30 mg/kg (A549 [21]): 37.8%
